In patent publication US20260294905A1, “USE OF PLURALITY OF COMPOUNDS IN PREPARATION OF DRUG FOR TREATING MYELOPROLIFERATIVE NEOPLASMS” (THE SECOND XIANGYA HOSPITAL OF CENTRAL SOUTH UNIVERSITY, priority 2022, published 2026):
Several values for one entry are separate records, joined by “and”; a condition that tells them apart may be missing. Identical values can stand only once. Entries after “also recorded” stand apart in the source; their conditions may differ.

Key:
[1] = system: HEL cells (human erythroleukemia cell line); test: CellTiter-Lumi luminescence proliferation of naive HEL cells, 48 h; type: cell-based; conditions: for activity at 0.1 µM / activity at 0.3 µM / activity at 1 µM / activity at 3 µM / activity at 10 µM: vs DMSO control, read-out: average proliferation rate of HEL cells
Experimental: (§1) HELs (Human erythroleukemia cell lines) and Ruxolitinib-resistant HEL cells were both cultured in a RPMI medium (Gibco) containing 20% heat-inactivated fetal bovine serum (Gibco) and 1% penicillin/streptomycin.
(§2) Ruxolitinib and other compounds were all purchased from Selleck, dissolved in DMSO with a stock solution concentration of 10 mM, and cryopreserved at −80° C. The working solution was diluted to a specified multiple using a RPMI medium and then used for treating cells. Ruxolitinib was specifically ruxolitinib phosphate.
(§3) To detect the antiproliferative effect of the inhibitor, the aforementioned cell lines were cultured at 3,000 cells/100 μL of the system per well, added with increasing concentrations of Ruxolitinib (concentration gradients of HEL cells: 0, 0.1, 1, 2.5, 5 μM; or 0, 0.1, 0.3, 1, 3, 10 μM), and added with DMSO to make up to the same amount. 4 parallel replicate groups were set up, and 3 blank wells (wells containing culture media without cells) were set up.
(§4) A calculation formula of the cell proliferation rate was: cell proliferation rate=(Luminescence value of the group added with the drug-average Luminescence value of the blank wells)/(Luminescence value of the DMSO control group-average Luminescence value of the blank wells)×100%.
In order to detect the effects of the compounds on the proliferation abilities of drug-resistant myeloproliferative neoplasm cells, the method was to treat the HEL naïve cell lines with increasing concentrations of Ruxolitinib and the compounds respectively, and to detect the proliferation of the cells by a CellTiter-Lumi™ luminescence method.

[2] = system: HEL^RE cells (Ruxolitinib-resistant HEL); test: CellTiter-Lumi luminescence proliferation of Ruxolitinib-resistant HEL^RE cells, 48 h; type: cell-based, human; conditions: for inhibition of proliferation of HEL^RE cells (in words): 0.1-10 μM; for activity at 0.1 µM / activity at 0.3 µM / activity at 1 µM / activity at 3 µM / activity at 10 µM: vs DMSO control, read-out: average proliferation rate of HEL^RE cells
Excerpt: as §1
A Ruxolitinib-resistant HEL model, i.e., a HEL^RE model, was constructed by starting the addition of Ruxolitinib at a concentration lower than the IC50 of naïve cells and slowly incrementing the concentration to a high concentration, and preventing the cells from being killed. Our starting concentration was 0.1 μM. The drug was added upon occurrence of cell proliferation. The drug addition gradient was an increment at a multiple of 1.25, and the final concentration was 2.0 μM. Stable drug-resistant cells were obtained after 4-6 weeks.
as §2, §3, §4
A method for evaluating whether the model was successfully constructed was to compare the IC50s of resistant cells and naïve cells.
In order to detect the effects of five compounds on the proliferation abilities of drug-resistant myeloproliferative neoplasm cells, the method was to treat HEL^RE with increasing concentrations of Ruxolitinib and the five compounds respectively, and to detect the proliferation of the cells by a CellTiter-Lumi™ luminescence method.

[3] = system: HEL cells (human erythroleukemia cell line); test: Annexin V-PI staining and flow cytometry, apoptosis of HEL cells, 24 h; type: cell-based
Experimental: • 1. the cell lines and inhibitors were the same as those in Example 1. • 2. detection of cell apoptosis
(§5) To detect the apoptosis-promoting effect of the inhibitors, HEL naïve cell strains were treated with Ruxolitinib and the compounds for 24 hours respectively (with concentrations of: 0, 0.1, 0.5, 1 μM or 0, 0.1, 0.3, 1, 3, 10 μM), and added with DMSO to make up to the same amount. 3 parallel replicate groups were set up, and cell apoptosis was detected by Annexin V and PI staining followed by flow cytometry.
(§6) A calculation formula of cell apoptosis rate was: cell apoptosis rate=the ratio of early apoptotic cells (Annexin V^+/PI^−)+the ratio of late apoptotic cells and necrotic cells (Annexin V^+/PI^+).

[4] = system: HEL^RE cells (Ruxolitinib-resistant HEL); test: Annexin V-PI staining and flow cytometry, apoptosis of HEL^RE cells; type: cell-based, human; conditions: for average apoptosis rate of HEL-RE cells: 24 h; for promotion of apoptosis of HEL^RE cells (in words): 0.1-10 μM
Experimental: as §5, §6
In order to detect the effects of compounds on the abilities of drug-resistant myeloproliferative neoplasm cells, the method was to treat HEL^RE with increasing concentrations of Ruxolitinib and the compounds, and to detect cell apoptosis by Annexin V and PI staining followed by flow cytometry.

[5] = system: myeloproliferative neoplasms patients; conditions: cited from earlier work; for effect on symptoms, clonal hematopoiesis, mutant gene load / side effects / safety in patients: clinical use
[6] = Homo sapiens, HEL^RE cells, 48 h

| Compound | activity at 0.1 µM ([1]; Homo sapiens, 48 h) | activity at 0.3 µM ([1]; Homo sapiens, 48 h) | activity at 1 µM ([1]; Homo sapiens, 48 h) | activity at 3 µM ([1]; Homo sapiens, 48 h) | activity at 10 µM ([1]; Homo sapiens, 48 h) | activity at 0.1 µM [2, 6] | activity at 0.3 µM [2, 6] | activity at 1 µM [2, 6] | activity at 3 µM [2, 6] | activity at 10 µM [2, 6] | average apoptosis rate of HEL cells ([3]; 0.1 μM) | average apoptosis rate of HEL cells ([3]; 0.3 μM) | average apoptosis rate of HEL cells ([3]; 1 μM) | average apoptosis rate of HEL cells ([3]; 3 μM) | average apoptosis rate of HEL cells ([3]; 10 μM) | average apoptosis rate of HEL-RE cells ([4]; 0.1 μM) | average apoptosis rate of HEL-RE cells ([4]; 0.3 μM) | average apoptosis rate of HEL-RE cells ([4]; 1 μM) | average apoptosis rate of HEL-RE cells ([4]; 3 μM) | average apoptosis rate of HEL-RE cells ([4]; 10 μM) | further results |
| --- | --- | --- | --- | --- | --- | --- | --- | --- | --- | --- | --- | --- | --- | --- | --- | --- | --- | --- | --- | --- | --- |
| Cc1ccc2c(Nc3cccc(Cl)c3F)nccc2c1NC(=O)c1csc2c(N)ncnc12 [Belvarafenib] | 98.9 ± 6.41% | 89.2 ± 4.68% | 98.2 ± 3.19% | 90.1 ± 4.72% | 87.3 ± 2.39% | 104 ± 6.13% | 92.4 ± 2.45% | 70.4% | 45.4 ± 2.33% | 31.1 ± 3.6% | 6.58±0.760% and 6.58% | 7.42±0.950% and 7.42% | 7.80±0.700% and 7.80% | 7.17±1.31% and 7.17% | 7.55±0.160% and 7.55% | 5.55±0.440% and 5.55% | 5.40±0.570% and 5.40% | 5.71±0.260% and 5.71% | 6.05±0.430% and 6.05% | 7.13±0.450% and 7.13% | inhibition of proliferation of HEL cells (in words) ([1]; 0.1-10 μM): could not inhibit the proliferation of the HEL cells; inhibition of proliferation of HEL^RE cells (in words) ([2]; HEL^RE cells): could inhibit the proliferation of the HEL^RE cells, and this effect increased with increase in the drug concentration; promotion of apoptosis of HEL cells (in words) ([3]; 0.1-10 μM): could not promote apoptosis of the HEL cells; promotion of apoptosis of HEL^RE cells (in words) [4]: could not promote apoptosis of the HEL^RE cells |
| N#CC[C@H](C1CCCC1)n1cc(-c2ncnc3[nH]ccc23)cn1 [Ruxolitinib] | 80.9 ± 1.35% | 54.9 ± 4.35% | 42.7 ± 4.05% | 34.7 ± 1.14% | 29.4 ± 0.49% | 105 ± 2.08% | 105 ± 3.59% | 104 ± 9.46% | 109 ± 4.39% | 96 ± 3.69% | 7.40±0.059% and 7.40% | 7.46±0.679% and 7.46% | 8.61±0.403% and 8.61% | 7.19±0.209% and 7.19% | 6.36±0.036% and 6.36% | 12.4±0.540% and 12.4% | 13.0±1.03% and 13.0% | 10.8±1.02% and 10.8% | 10.2±0.880% and 10.2% | 10.6±1.33% and 10.6% | IC50 ([1]; Homo sapiens, 48 h, mean (95% confidence interval)): 2.31 µM; drug resistance index (ratio of IC50s of resistant and naive cells) ([2]; HEL^RE vs HEL cells, 2880 min): 19.0; IC50 ([2]; Homo sapiens, HEL^RE cells, 48 h, mean (95% confidence interval)): 44.7 µM; patients developing drug resistance ([5]; MF patients treated for 1 year, type I JAK inhibitors such as RUX): more than 40%; effect on symptoms, clonal hematopoiesis, mutant gene load [5]: cannot reduce the load of mutant genes; side effects / safety in patients [5]: more severe anemia; also recorded: bone marrow suppression as a common side effect; spleen volume and symptoms ([5]; intermediate- and high-risk MF and PV, Phase II and III trials, vs optimal therapy): can reduce the spleen volume and alleviate symptoms |
| Cn1c(Nc2ccc(C(F)(F)F)cc2)nc2cc(Oc3ccnc(-c4ncc(C(F)(F)F)[nH]4)c3)ccc21 [RAF265] | 66.1 ± 4.71% | 45.2 ± 2.96% | 37 ± 2.18% | 30 ± 0.13% | 19.2 ± 0.99% | 92 ± 3.92% | 67.2 ± 3.7% | 35.8 ± 3.88% | 21.8 ± 1.48% | 3.45 ± 0.58% | 7.24±1.30% and 7.24% | 7.19±0.400% and 7.19% | 8.11±0.260% and 8.11% | 10.7±1.22% and 10.7% | 12.8±1.44% and 12.8% | 6.48±0.480% and 6.48% | 7.31±0.140% and 7.31% | 8.24±0.730% and 8.24% | 11.9±0.520% and 11.9% | 19.1±3.75% and 19.1% | inhibition of proliferation of HEL cells (in words) ([1]; 0.1-10 μM): can successfully inhibit the proliferation of the HEL cells; also recorded: could inhibit the proliferation of the HEL cells, this effect was increased with the increase of the drug concentration; inhibitory effect on proliferation compared with Ruxolitinib ([1]; 0.1-10 μM): its inhibitory effect was better than that of Ruxolitinib; overall effectiveness among the compounds ([1]; proliferation and apoptosis taken together): more effective; inhibition of proliferation of HEL^RE cells (in words) ([2]; HEL^RE cells): could inhibit the proliferation of the HEL^RE cells, and this effect increased with increase in the drug concentration; overall effectiveness among the compounds ([2]; HEL^RE cells, proliferation and apoptosis taken together): more effective; effect on apoptosis compared with Ruxolitinib ([3]; 0.1-10 μM): its inhibitory effect was better than that of Ruxolitinib; promotion of apoptosis of HEL cells (in words) ([3]; 0.1-10 μM): could promote the apoptosis of the HEL cells, this effect was increased with the increase of the drug concentration; also recorded: can promote the apoptosis of the HEL cells; promotion of apoptosis of HEL^RE cells (in words) [4]: could promote apoptosis of the HEL^RE cells, and this effect increased with increase in the drug concentration; also recorded: can promote the apoptosis of the HEL^RE cells |
| Cc1cnc(Nc2ccc(OCCN3CCCC3)cc2)nc1Nc1cccc(S(=O)(=O)NC(C)(C)C)c1 [Fedratinib] |  |  |  |  |  |  |  |  |  |  |  |  |  |  |  |  |  |  |  |  | side effects / safety in patients [5]: may cause encephalopathy, including the risk of Wernicke's encephalopathy |
| NC(=O)NO [Hydroxyurea, hydroxyurea] |  |  |  |  |  |  |  |  |  |  |  |  |  |  |  |  |  |  |  |  | effect on symptoms, clonal hematopoiesis, mutant gene load [5]: can only relieve symptoms but cannot inhibit clonal hematopoiesis; side effects / safety in patients [5]: may increase the risks of myelodysplastic syndrome and acute myelogenous leukemia |
